Square brackets hold non-standard residues; d marks the D form. Peptide text beside a SMILES is read from it. Phe(4-NO2) = N[C@@H](Cc1ccc([N+](=O)[O-])cc1)C(=O)O; 2Abz = Nc1ccccc1C(=O)O
B1: Human rhinovirus A protease (Human rhinovirus sp.), Q4U254 (protein)
chain: AFRPCNVNTKIGNAKCCPFVCGKAVTFKDRSTCSTYNLSSSLHHILEEDKRRRQVVDVMSAIFQGPISLDAPPPPAIADLLQSVRTPRVIKYCQIIMGHPAECQVERDLNIANSIIAIIANIISIAGIIFVIYKLFCSLQGPYSGEPKPKTKVPERRVVAQGPEEEFGRSILKNNTCVITTGNGKFTGLGIHDRILIIPTHADPGREVQVNGVHTKVLDSYDLYNRDGVKLEITVIQLDRNEKFRDIRKYIPETEDDYPECNLALSANQDEPTIIKVGDVVSYGNILLSGNQTARMLKYNYPTKSGYCGGVLYKIGQILGIHVGGNGRDGFSAMLLRSYFTGQIKVNKHATECGLPDIQTIHTPSKTKLQPSVFYDVFPGSKEPAVLTDNDPRLEVNFKEA

Assays:
[1] = test system: Cysteine protease B (Leishmania mexicana); assay: Inhibitory potency against Cysteine protease B, expressed as kinetic constant (kcat/Km)
[2] = compound: C[C@@H](O)[C@H](NC(=O)[C@H](CCCN=C(N)N)NC(=O)[C@H](Cc1ccccc1)NC(=O)[C@H](CCCN=C(N)N)NC(=O)[C@@H]1CCCN1C(=O)[C@@H](N)Cc1ccc([N+](=O)[O-])cc1)C(=O)NCC(=O)N[C@@H](CO)C(=O)N[C@@H](CCCCNC(=O)c1ccccc1N)C(=O)NCC(=O)O; assay: Inhibitory potency against Cysteine protease B, expressed as kinetic constant (Km); conditions: Leishmania mexicana

Molecule	k cat/Km [1]	Km [2]
C[C@@H](O)[C@H](NC(=O)[C@H](CCCN=C(N)N)NC(=O)[C@H](Cc1ccccc1)NC(=O)[C@H](CCCN=C(N)N)NC(=O)[C@@H]1CCCN1C(=O)[C@@H](N)Cc1ccc([N+](=O)[O-])cc1)C(=O)NCC(=O)N[C@@H](CO)C(=O)N[C@@H](CCCCNC(=O)c1ccccc1N)C(=O)NCC(=O)O (H-[Phe(4-NO2)]PRFRTGSK(2Abz)G-OH)	1300 mM/s	–
B1	–	1.13 µM

— ChEMBL document CHEMBL1135405, “Solid-phase library synthesis, screening, and selection of tight-binding reduced peptide bond inhibitors of a recombinant Leishmania mexicana cysteine protease B” (J Med Chem, 2002)
